Results published in PubChem BioAssay AID1963858 (Molecular Pharmacology Branch, DTP, NCI, 2024).
“And” between values parts separate entries of the source, which are not always exact repeats. Equal entries are not always repeated.

Tested on: HOP-62 multicell spheroids with HUVEC/MSC, viability
Assay: Anticancer human tumor HOP-62 cell line growth inhibition [KRAS2];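 note: viability read after a week of compound exposure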;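 for viability, T/C: 100% = DMSO vehicle-treated spheroids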
Details: for viability, T/C: stronger effect = lower value
Source text: Multicellular complex tumor spheroid response to RAS pathway inhibitors in combination with a targeted agents in patient-derived cell lines with oncogenic KRAS variants from multiple cancer types
A high-throughput screen of multi-cell type tumor spheroids was designed to identify active combinations of targeted small molecules and KRAS pathway inhibitors. Complex spheroids include a stromal component modeled by human endothelial cells (HUVEC) and fibroblasts modeled by human mesenchymal stem cells (MSCs). The concentration ranges selected for each drug and investigational agent were based upon clinically achievable concentrations if the clinical Cmax of the agent was known.
Compounds. The drugs and investigational agents: BI-3406 (NSC825286), BAY-293 (NSC824723), batoprotafib (TNO155; NSC825523), sotorasib (AMG 510; NSC818433), MRTX1257 (NSC819558), elimusertib (BAY 1895344; NSC800525), molibresib (GSK525762; NSC774829), temuterkib (LY3214996; NSC803410), venetoclax (NSC766270), alisertib (NSC759677), olaparib (NSC753686), talazoparib (NSC767125), erdafitinib (NSC781556), ipatasertib (NSC767898), cabozantinib (NSC761068), nintedanib (NSC756659), abemaciclib (NSC768073), docetaxel (NSC628503), trametinib (NSC758246), and sapanisertib (NSC764658) were obtained from the National Cancer Institute (NCI) Developmental Therapeutics Program Chemical Repository. The FDA-approved anticancer drug set is available from the Developmental Therapeutics Program. […] The stock solutions were prepared in dimethyl sulfoxide (DMSO, Sigma-Aldrich, St. Louis, MO, cat. D2650) at 800-fold the tested concentration and stored at -70 degrees C prior to their use. All drugs and investigational agents were tested over a range starting from a high concentration at or near the clinical Cmax and decreasing in half-log increments. If the clinical Cmax for an agent had not been determined, the highest concentration tested was 10 microM.
Cell Culture. All cells were maintained in an incubator at 37 degrees C and 5% CO2 with 95% humidity. The PDC lines were cultured according to standard operating procedures established by the NCI PDMR (https://pdmr.cancer.gov/sops/default.htm). Briefly, all PDCs were thawed and cultured in Matrigel-coated flasks prepared with a working solution of 1X Ham's F-12 nutrient mix, without supplementation (Invitrogen, Waltham, MA, cat. 11765054), 100 U/mL penicillin-streptomycin (Invitrogen, cat. 15140122), and 2.5% Matrigel (Corning Inc., Corning, NY, cat. 354248) for the first three passages. All PDCs were cultured in complete DMEM/F-12 media containing advanced DMEM/F-12 (Invitrogen, cat. 12634028), 4.9% defined fetal bovine serum, heat inactivated (HyClone Laboratories Inc., Logan, UT, cat. SH30070.03HI), 389 ng/mL hydrocortisone (Sigma-Aldrich, cat. H4001), 9.7 ng/mL human EGF recombinant protein (Invitrogen, cat. PHG0313), 23.4 microg/mL adenine (Sigma-Aldrich, cat. A2786), 97.3 U/mL penicillin-streptomycin (Invitrogen, cat. 15140122), 1.9 mM L-glutamine (Invitrogen, cat. 25030081), and 9.7 microM Y-27632 dihydrochloride (Tocris Bioscience, Bristol, United Kingdom, cat. 1254). The PDCs were cultured in complete DMEM/F12 media without 9.7 microM Y-27632 dihydrochloride for at least two passages prior to the screen. The established cell line HOP-62 was cultured in RPMI 1640 medium, HEPES (Invitrogen, cat. 22400105) with 10% defined fetal bovine serum (HyClone Laboratories Inc., cat. SH30070.03) and 2 mM L-glutamine (Invitrogen, cat. 25030081). The pooled donor HUVEC were cultured in endothelial cell growth medium 2 (PromoCell, Heidelberg, Germany, cat. C-22011) and the hMSC were cultured in mesenchymal stem cell growth medium 2 (PromoCell, cat. C-28009). For all experiments, HUVEC and hMSC were used at passages </=5, while the malignant cell lines were used at passages </=15. […]

[1] = compound alone, run of 07/19/2021
[2] = compound alone, run of 07/26/2021
[3] = compound alone, run of 07/12/2021

Row | Compound | viability, T/C (compound 3.16 µM) | viability, T/C (compound 1 µM) | viability, T/C (compound 0.01 µM) | viability, T/C (compound 0.0316 µM) | IC50 (curve of compound) | viability, T/C (compound 0.1 µM) | viability, T/C (compound 0.316 µM) | viability, T/C (compound 10 µM) | also measured
1 | C=CC(=O)N1CCN(c2nc(=O)n(-c3c(C)ccnc3C(C)C)c3nc(-c4c(O)cccc4F)c(F)cc23)C(C)C1 (stereo not drawn) | 65.2% [middle of 17 runs] |  |  |  |  |  |  |  | IC50 [1]: > 10 µM and 4.34 µM; IC50 [2]: 8.23 µM [middle of 5 runs]
2 | C=CC(=O)N1CCN(c2nc(OCC3CCCN3C)nc3c2CCN(c2cccc4cccc(C)c24)C3)CC1CC#N (stereo not drawn) |  | 35.5% [middle of 17 runs] |  |  |  |  |  |  | IC50 [2]: 622 nM [middle of 6 runs]
3 | CC(=O)Nc1cccc(-n2c(=O)n(C3CC3)c(=O)c3c(Nc4ccc(I)cc4F)n(C)c(=O)c(C)c32)c1 |  |  | 31% [middle of 5 runs] | 31.2% [middle of 5 runs] | 4.9 nM [middle of 5 runs] |  |  |  | viability, T/C (compound 0.0001 µM): 107% [middle of 5 runs]; viability, T/C (compound 0.000316 µM): 107% [middle of 5 runs]; viability, T/C (compound 0.001 µM): 87.9% [middle of 5 runs]; viability, T/C (compound 0.00316 µM): 61.7% [middle of 5 runs]
4 | CC(=O)OC12COC1CC(O)C1(C)C(=O)C(O)C3=C(C)C(OC(=O)C(O)C(NC(=O)OC(C)(C)C)c4ccccc4)CC(O)(C(OC(=O)c4ccccc4)C21)C3(C)C (stereo not drawn) | 42.9% [middle of 5 runs] | 42% [middle of 5 runs] | 41% [middle of 5 runs] | 36.9% [middle of 5 runs] | < 0.01 µM | 36.1% [middle of 5 runs] | 39.6% [middle of 5 runs] |  | 
5 | CC(C)NCC(C(=O)N1CCN(c2ncnc3c2C(C)CC3O)CC1)c1ccc(Cl)cc1 (stereo not drawn) | 27.9% [middle of 5 runs] | 62.8% [middle of 5 runs] |  | 101% [middle of 5 runs] | 1.49 µM [middle of 5 runs] | 104% [middle of 5 runs] | 80.4% [middle of 5 runs] | 13.2% [middle of 5 runs] | 
6 | CC(C)n1nc(-c2ccc3oc(N)nc3c2)c2c(N)ncnc21 |  |  | 44% [middle of 5 runs] | 25.6% [middle of 5 runs] |  | 18.1% [middle of 5 runs] |  |  | viability, T/C (compound 0.000316 µM): 93.7% [middle of 5 runs]; viability, T/C (compound 0.001 µM): 80.3% [middle of 5 runs]
7 | CC1(C)CCC(CN2CCN(c3ccc(C(=O)NS(=O)(=O)c4ccc(NCC5CCOCC5)c([N+](=O)[O-])c4)c(Oc4cnc5[nH]ccc5c4)c3)CC2)=C(c2ccc(Cl)cc2)C1 | 73.1% [middle of 5 runs] | 89.2% [middle of 5 runs] |  | 97.8% [middle of 5 runs] | 5.7 µM [middle of 5 runs] | 98.4% [middle of 5 runs] | 93.6% [middle of 5 runs] | 26.2% [middle of 5 runs] | 
8 | CC1COCCN1c1cc(-c2ccnn2C)c2ccnc(-c3ccn[nH]3)c2n1 (stereo not drawn) | 17.2% [middle of 5 runs] | 16.8% [middle of 5 runs] |  |  |  |  | 16.9% [middle of 5 runs] |  | 
9 | CC1OCC2(CCN(c3cnc(Sc4ccnc(N)c4Cl)c(N)n3)CC2)C1N (stereo not drawn) |  |  |  | 103% (2×) and 77% | > 10 µM and 3.82 µM and 9.82 µM | 92.2% [middle of 19 runs] |  |  | IC50 [3]: 2.29 µM [middle of 6 runs]
10 | CCN1CCN(Cc2ccc(Nc3ncc(F)c(-c4cc(F)c5nc(C)n(C(C)C)c5c4)n3)nc2)CC1 |  | 68% [middle of 5 runs] | 102% [middle of 5 runs] | 99.7% [middle of 5 runs] | > 1 µM | 98.1% [middle of 5 runs] | 86.3% [middle of 5 runs] |  | viability, T/C (compound 0.00316 µM): 102% [middle of 5 runs]
11 | CCNC(=O)CC1N=C(c2ccc(Cl)cc2)c2cc(OC)ccc2-n2c(C)nnc21 (stereo not drawn) | 44.7% [middle of 5 runs] | 48.2% [middle of 5 runs] |  | 105% [middle of 5 runs] | 880 nM [middle of 5 runs] | 90% [middle of 5 runs] | 62.1% [middle of 5 runs] |  | 
12 | CN(C)C/C=C/C(=O)Nc1cc2c(Nc3ccc(F)c(Cl)c3)ncnc2cc1O[C@H]1CCOC1 |  |  | 104% [middle of 5 runs] | 105% [middle of 5 runs] | > 0.1 µM | 102% [middle of 5 runs] |  |  | viability, T/C (compound 0.000316 µM): 105% and 110% and 102% (2×); viability, T/C (compound 0.001 µM): 114% (2×) and 107% and 102% (2×); viability, T/C (compound 0.00316 µM): 104% [middle of 5 runs]
13 | CNCc1ccccc1-c1csc(C(C)Nc2nc(C)nc3cc(OC)c(OC)cc23)c1 (stereo not drawn) |  |  |  |  |  | 99.2% [middle of 17 runs] |  | 0.22% [middle of 15 runs] | IC50 [1]: 1.54 µM [middle of 5 runs]; IC50 [2]: 1.73 µM [middle of 6 runs]
14 | COC(=O)c1ccc2c(C(=Nc3ccc(N(C)C(=O)CN4CCN(C)CC4)cc3)c3ccccc3)c(O)[nH]c2c1 | 40.7% [middle of 5 runs] | 48.6% [middle of 5 runs] |  | 89.8% [middle of 5 runs] | 1.09 µM [middle of 5 runs] | 77.7% [middle of 5 runs] | 65.8% [middle of 5 runs] | 15.8% [middle of 5 runs] | 
15 | COc1cc(Nc2ncc3c(n2)-c2ccc(Cl)cc2C(c2c(F)cccc2OC)=NC3)ccc1C(=O)O | 33.8% [middle of 5 runs] | 42.8% [middle of 5 runs] |  |  |  |  | 51% [middle of 5 runs] | 20.9% [middle of 5 runs] | 
16 | COc1cc2nc(C)nc(NC(C)c3cc(N)cc(C(F)(F)F)c3)c2cc1OC1CCOC1 (stereo not drawn) |  |  |  |  |  |  |  |  | IC50 [3]: > 10 µM and 9.67 µM
17 | COc1cc2nccc(Oc3ccc(NC(=O)C4(C(=O)Nc5ccc(F)cc5)CC4)cc3)c2cc1OC | 78.9% [middle of 5 runs] | 99.2% [middle of 5 runs] |  | 96.9% [middle of 5 runs] |  |  |  |  | 
18 | Cn1nccc1Nc1nccc(-c2cc3c(s2)C(C)(C)N(CCN2CCOCC2)C3=O)n1 | 32.8% [middle of 5 runs] | 62.4% [middle of 5 runs] |  | 98.2% [middle of 5 runs] | 1.65 µM [middle of 5 runs] | 103% [middle of 5 runs] | 99.5% [middle of 5 runs] | 30.4% [middle of 5 runs] | 
19 | Cn1ncnc1[C@H]1c2n[nH]c(=O)c3cc(F)cc(c23)N[C@@H]1c1ccc(F)cc1 |  |  | 99.4% [middle of 5 runs] | 98% [middle of 5 runs] | > 0.1 µM | 85.3% [middle of 5 runs] |  |  | viability, T/C (compound 0.000316 µM): 105% [middle of 5 runs]; viability, T/C (compound 0.001 µM): 102% (2×) and 95.9% and 103% (2×); viability, T/C (compound 0.00316 µM): 103% [middle of 5 runs]
20 | O=C(c1cc(Cc2n[nH]c(=O)c3ccccc23)ccc1F)N1CCN(C(=O)C2CC2)CC1 |  |  |  | 105% [middle of 5 runs] | 4.88 µM and > 10 µM and 4.58 µM | 102% [middle of 5 runs] | 93.2% [middle of 5 runs] | 50.4% [middle of 5 runs] | 
